Measured values from PubChem BioAssay AID1963966 (Molecular Pharmacology Branch, DTP, NCI, 2024).

Tested on: 935938-334-R-J1-PDC spheroids with HUVEC/MSC, viability
Test: Anticancer human tumor 935938-334-R-J1-PDC patient-derived small intestine adenocarcinoma cell line growth inhibition [PI3K]
Conditions: for IC50: curve of first compound; for viability, T/C: stronger effect = lower value; active = viability on the fitted dose curve at most 10% of control; inactive = the rest
In short: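 We assembled tumor spheroids that included a stromal compartment of HUVEC and MSCs, then exposed them to targeted agents alone and together with PI3K pathway inhibitors. Concentration series descended by half-log from clinically achievable Cmax levels. Viability served as the endpoint.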

[1] = second compound 0.0316 µM, first compound 0.0316 µM
[2] = second compound 0.0316 µM, first compound 0.1 µM
[3] = second compound 0.0316 µM, first compound 0.316 µM
[4] = second compound 0.0316 µM, first compound 1 µM
[5] = second compound 0.0316 µM, first compound 3.16 µM
[6] = second compound 0.0316 µM, first compound 10 µM
[7] = second compound 0.1 µM, first compound 0.0316 µM
[8] = second compound 0.1 µM, first compound 0.1 µM
[9] = second compound 0.1 µM, first compound 0.316 µM
[10] = second compound 0.1 µM, first compound 1 µM
[11] = second compound 0.1 µM, first compound 3.16 µM
[12] = second compound 0.1 µM, first compound 10 µM
[13] = second compound 0.316 µM, first compound 0.0316 µM
[14] = second compound 0.316 µM, first compound 0.1 µM
[15] = second compound 0.316 µM, first compound 0.316 µM
[16] = second compound 0.316 µM, first compound 1 µM
[17] = second compound 0.316 µM, first compound 3.16 µM
[18] = second compound 0.316 µM, first compound 10 µM
[19] = second compound 1 µM, first compound 0.0316 µM
[20] = second compound 1 µM, first compound 0.1 µM
[21] = second compound 1 µM, first compound 0.316 µM
[22] = second compound 1 µM, first compound 1 µM
[23] = second compound 1 µM, first compound 3.16 µM
[24] = second compound 1 µM, first compound 10 µM
[25] = second compound 3.16 µM, first compound 0.0316 µM
[26] = second compound 3.16 µM, first compound 0.1 µM
[27] = second compound 3.16 µM, first compound 0.316 µM
[28] = second compound 3.16 µM, first compound 1 µM
[29] = second compound 3.16 µM, first compound 3.16 µM
[30] = second compound 3.16 µM, first compound 10 µM
[31] = second compound 10 µM, first compound 0.0316 µM
[32] = second compound 10 µM, first compound 0.1 µM
[33] = second compound 10 µM, first compound 0.316 µM
[34] = second compound 10 µM, first compound 1 µM
[35] = second compound 10 µM, first compound 3.16 µM
[36] = second compound 10 µM, first compound 10 µM
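Also: compound exposure lasted seven days before viability was read.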
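For viability, T/C in this document: percent of vehicle DMSO treated spheroid viability so 100% = untreated.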

Cn1ncc(Cl)c1-c1cc(C(=O)NC(CN)Cc2cccc(F)c2)sc1Cl (centres undefined) + CC(Nc1ncnc2nc[nH]c12)c1cc2cccc(Cl)c2c(=O)n1-c1ccccc1
271 nM: IC50 (second compound 10 µM)
2710 nM: IC50 (second compound 1 µM)
inactive: viability, T/C [1] 73% | viability, T/C [2] 91.4% | viability, T/C [3] 65.3% | viability, T/C [4] 65.4% | viability, T/C [5] 54.6% | viability, T/C [6] 51.3% | viability, T/C [7] 92.6% | viability, T/C [8] 88.9% | viability, T/C [9] 88.1% | viability, T/C [10] 63.2% | viability, T/C [11] 56.8% | viability, T/C [12] 58.1% | viability, T/C [13] 104% | viability, T/C [14] 128% | viability, T/C [15] 75% | viability, T/C [16] 78.4% | viability, T/C [17] 49.3% | viability, T/C [18] 34% | viability, T/C [19] 73.5% | viability, T/C [20] 97.8% | viability, T/C [21] 73.1% | viability, T/C [22] 61.6% | viability, T/C [23] 51.3% | viability, T/C [24] 36.3% | viability, T/C [25] 72.2% | viability, T/C [26] 74.1% | viability, T/C [27] 61.5% | viability, T/C [28] 47.9% | viability, T/C [29] 52.5% | viability, T/C [30] 33.2% | viability, T/C [31] 73.2% | viability, T/C [32] 83.9% | viability, T/C [33] 45.5% | viability, T/C [34] 52.7% | viability, T/C [35] 39.4% | viability, T/C [36] 34.5%
> 10000 nM: IC50 (second compound 0.0316 µM) | IC50 (second compound 0.1 µM)
3110 nM: IC50 (second compound 0.316 µM)
1760 nM: IC50 (second compound 3.16 µM)

Cn1nccc1Nc1nccc(-c2ccn(C(CO)c3ccc(Cl)c(F)c3)c(=O)c2)n1 (centres undefined) + CC(Nc1ncnc2nc[nH]c12)c1cc2cccc(Cl)c2c(=O)n1-c1ccccc1
143 nM: IC50 (second compound 10 µM)
767 nM: IC50 (second compound 0.0316 µM)
1300 nM: IC50 (second compound 0.316 µM)
529 nM: IC50 (second compound 3.16 µM)
inactive: viability, T/C [1] 85.2% | viability, T/C [2] 79.2% | viability, T/C [3] 66.3% | viability, T/C [4] 46.7% | viability, T/C [5] 31.1% | viability, T/C [6] 38.6% | viability, T/C [7] 99.6% | viability, T/C [8] 91.1% | viability, T/C [9] 73% | viability, T/C [10] 54.4% | viability, T/C [11] 41.4% | viability, T/C [12] 33.6% | viability, T/C [13] 87.9% | viability, T/C [14] 101% | viability, T/C [15] 63.2% | viability, T/C [16] 56.2% | viability, T/C [17] 41.1% | viability, T/C [18] 28.3% | viability, T/C [19] 96.2% | viability, T/C [20] 81.3% | viability, T/C [21] 57.1% | viability, T/C [22] 61% | viability, T/C [23] 39.6% | viability, T/C [24] 27.9% | viability, T/C [25] 74.1% | viability, T/C [26] 77.8% | viability, T/C [27] 55.3% | viability, T/C [28] 43.1% | viability, T/C [29] 32.4% | viability, T/C [30] 33.6% | viability, T/C [31] 63.4% | viability, T/C [32] 53.5% | viability, T/C [33] 43.8% | viability, T/C [34] 33.6% | viability, T/C [35] 32.6% | viability, T/C [36] 25.3%
1460 nM: IC50 (second compound 0.1 µM)
1280 nM: IC50 (second compound 1 µM)
